Reference: patent US20130023485A1, “PARENTERAL FORMULATIONS OF PEPTIDES FOR THE TREATMENT OF SYSTEMATIC LUPUS ERYTHEMATOSUS” (Teva Pharmaceutical Industries, Ltd., priority 2003, published 2013)

Assays:
[1] = Biological activity of chosen Compound 1 formulations
Excerpt: The pH was adjusted if needed.

[2] = Mouse toxicity study of formulation; type: in vivo; conditions: 30% (w/w) PEG 400 formulation
Excerpt: Thus, it was decided not to further pursue this formulation. In view of the preliminary experiments non-aqueous solvents were not used in the subject formulations.

[3] = tested on: Compound 1 reference standard (RS) specific T-cells; experiment: Inhibition of IL-2 secretion from T-cells of immunized mice after s.c. treatment (ELISA); type: in vivo
Excerpt: The biological activity was monitored by inhibition of IL-2 secretion from Compound 1 reference standard (RS) specific T-cells following subcutaneous (s.c.) treatment with the lyophilized compound solution, i.e. the drug product (DP), at two concentrations. The results of the treatment are compared to those of treating mice with Compound 1 (RS) in phosphate buffered saline (PBS).

LN cells = experiment: TGF-β secretion by cultured LN cells of immunized and treated mice (ELISA); type: in vivo, BALB/c mice; conditions: all Compound 1 treatment groups (25-200 μg/mouse)
Method: A group of 20 mice were immunized with 50 μg/mouse of Compound 1 RS. The immunized mice were allocated to five treatment groups as follows: placebo, 25, 50, 100 and 200 μg/mouse of Compound 1 DP (subcutaneous administration). Ten days post immunization and treatment, LN was extracted and single cell suspension was prepared. The in-vitro secretion of IFN-γ and TGF-β by the cultured cells in response to activation with several concentrations of Compound 1 RS was then measured. [table] […] Secretion of IFN-γ and TGF-β, as indication of cellular response, were determined by ELISA of culture media (48 hrs for IFN-γ and 72 hrs for TGF-β).

SLE subjects = experiment: Phase Ib clinical study, multiple s.c. doses, tolerability and safety; type: in vivo, human; conditions: multiple s.c. doses of 0.5, 1 or 2.5 mg in 120 mg Captisol®, 12 injections in 4 weeks
Method: This study is being performed in order to evaluate the safety and tolerability of repeated Compound 1 sc administration to SLE subjects. […] Subjects are monitored on planned visits scheduled at 2, 4, 8 and 12 weeks after start of dosing. Safety and tolerability are evaluated using tests similar to those described in the Phase Ia Clinical Study above.

[4] = tested on: PBL of SLE patients stimulated with phytohemagglutinin (PHA); experiment: Proliferation of PBL stimulated with mitogen PHA; type: cell-based, human; conditions: PHA 2 μg/ml; PBL of one SLE patient, FIG. 9
Method: To this end the peptides hCDR1 or hCDR3 were added to cultures of PBL of SLE patients that were stimulated with the mitogen phytohemagglutinin (PHA, 2 μg/ml).

[5] = tested on: IL-2 secretion by PBL of SLE patients; experiment: Inhibition of IL-2 secretion by PBL stimulated with human 16/6Id mAb (CTLL line); type: cell-based
Method: It was of interest to find out whether the hCDR peptides are capable of inhibiting IL-2 secretion by PBL of SLE patients following stimulation with the human 16/6Id mAb. […] To this end, PBL of SLE patients were incubated with the human 16/6Id mAb in the absence or presence of the peptides hCDR1 or hCDR3. Supernatants of the cultures were collected following 48 hours of incubation. Assays to determine levels of IL-2 in the supernatants were performed using the CTLL IL-2 dependent line. Briefly, cells of the CTLL line (2×10^4/well) were incubated in the presence of the different supernatants for 24 hours, followed by the addition of ^3H-thymidine for an additional 18-hour incubation period. Cells were then harvested and radioactivity counted using a β-counter. Results were calculated based on recombinant human IL-2 used as a standard. The ability of the peptides to inhibit the IL-2 secretion of PBL of 23 responders stimulated by the human 16/6 Id was tested. […] Inhibition of proliferative responses of PBL directly correlated with IL-2 inhibition by the CDR-based peptides.

[6] = tested on: TGF-β secretion by PBL of SLE patients; experiment: Up-regulation of TGF-β secretion by PBL stimulated with human 16/6Id mAb (ELISA); type: cell-based
Method: For this purpose, supernatants were removed from cultures of PBL of various SLE patients following 48 hours incubation with the human 16/6Id mAb in the absence or presence of the peptides hCDR1 or hCDR3. TGF-β was determined by ELISA according to the manufacturer's instructions. Briefly, Maxisorb plates (Nunc) were coated with recombinant human TGFβsRII/Fc chimera (R & D Systems) diluted in PBS (100 ng/ml). After blocking, cell supernatants were added. After 18 hours incubation the detecting biotinylated anti-human TGF-β antibody (R & D Systems) was added. The substrate solution used was the TMB Colour Reagent (Helix Diagnostics) and enzyme activity was evaluated by the MRX ELISA reader using the 570 nm and 630 nm filters.

[7] = tested on: Balb/c mice and (NZB×NZW)F1 mice; conditions: cited from earlier work
[8] = Solubility of Compound 1 with solubility enhancers (visual examination and analytical assay)
[9] = treated 50 μg/mouse s.c., activator Compd. 1 RS 5 μg/ml
[10] = treated 50 μg/mouse s.c., activator Compd. 1 RS 10 μg/ml
[11] = treated 50 μg/mouse s.c., activator Compd. 1 RS 25 μg/ml
[12] = treated 50 μg/mouse s.c., activator Compd. 1 RS 50 μg/ml
[13] = treated 50 μg/mouse s.c., activator Compd. 1 RS 100 μg/ml
[14] = treated 50 μg/mouse s.c., activator Compd. 1 RS […]
[15] = treated 200 μg/mouse s.c., activator Compd. 1 RS 5 μg/ml
[16] = treated 200 μg/mouse s.c., activator Compd. 1 RS 10 μg/ml
[17] = treated 200 μg/mouse s.c., activator Compd. 1 RS 25 μg/ml
[18] = treated 200 μg/mouse s.c., activator Compd. 1 RS 50 μg/ml
[19] = treated 200 μg/mouse s.c., activator Compd. 1 RS 100 μg/ml

Substance: H-GYYWSWIRQPPGKGEEWIG-OH [Compound 1]
- biological activity ([1]; 30% (w/w) PEG 400 formulation): inactive
- biological activity ([1]; formulations with acetate buffer and citrate buffer (Mannitol as tonicity agent)): active
- biological activity ([1]; the two cyclodextrin formulations (Hydroxypropyl-β-cyclodextrin, Captisol)): equal to the activity of the peptide alone
- adverse effects [2]: may have been the cause of some adverse effects
- Average inhibition (%) (at the range of 5-100 μg/ml) ([3]; treated 50 μg/mouse s.c.): 45.6%
- IL-2 secretion ([3]; treated 50 μg/mouse s.c., activator Compd. 1 RS 0 μg/ml): BQL
- IL-2 secretion ([3]; treated 50 μg/mouse s.c., activator Compd. 1 RS 0.5 μg/ml): 9 pg/mL
- IL-2 secretion ([3]; treated 50 μg/mouse s.c., activator Compd. 1 RS 1 μg/ml): BQL
- % inhib. of IL-2 secretion [3, 9]: 55%
- IL-2 secretion [3, 9]: 9 pg/mL
- % inhib. of IL-2 secretion [3, 10]: 38%
- IL-2 secretion [3, 10]: 16 pg/mL
- % inhib. of IL-2 secretion [3, 11]: 48%
- IL-2 secretion [3, 11]: 15 pg/mL
- % inhib. of IL-2 secretion [3, 12]: 47%
- IL-2 secretion [3, 12]: 21 pg/mL
- % inhib. of IL-2 secretion [3, 13]: 41%
- IL-2 secretion [3, 13]: 25 pg/mL
- % inhib. of IL-2 secretion [3, 14]: 51%
- IL-2 secretion [3, 14]: 8 pg/mL
- IL-2 secretion ([3]; treated 50 μg/mouse s.c., activator Con A […]): 6,215 pg/ml
- Average inhibition (%) (at the range of 5-100 μg/ml) ([3]; treated 200 μg/mouse s.c.): 60.4%
- IL-2 secretion ([3]; treated 200 μg/mouse s.c., activator Compd. 1 RS 0 μg/ml): BQL
- IL-2 secretion ([3]; treated 200 μg/mouse s.c., activator Compd. 1 RS 0.5 μg/ml): 10 pg/mL
- IL-2 secretion ([3]; treated 200 μg/mouse s.c., activator Compd. 1 RS 1 μg/ml): BQL
- % inhib. of IL-2 secretion [3, 15]: 60%
- IL-2 secretion [3, 15]: 8 pg/mL
- % inhib. of IL-2 secretion [3, 16]: 58%
- IL-2 secretion [3, 16]: 11 pg/mL
- % inhib. of IL-2 secretion [3, 17]: 63%
- IL-2 secretion [3, 17]: 11 pg/mL
- % inhib. of IL-2 secretion [3, 18]: 62%
- IL-2 secretion [3, 18]: 15 pg/mL
- % inhib. of IL-2 secretion [3, 19]: 58%
- IL-2 secretion [3, 19]: 18 pg/mL
- IL-2 secretion ([3]; treated 200 μg/mouse s.c., activator Compd. 1 RS […]): BQL
- IL-2 secretion ([3]; treated 200 μg/mouse s.c., activator Con A […]): 5,403 pg/ml
- TGF-β secreted level (LN cells): below the detection limit
- safety and tolerability (SLE subjects): safe and well tolerated
- inhibition of proliferative responses to mitogen PHA [4]: could not inhibit
- patients whose PBL IL-2 secretion was inhibited / tested ([5]; 23 responders): 21/23
- Maximum inhibition % ([5]; IL-2 secretion with 16/6 Id alone = 100%): 84 ± 31%
- Inhibitory Activity* % (patients with inhibition of 50% or more) ([5]; PBL of 23 responders): 91 (21/23) %
- inhibition of IL-2 secretion ([5]; PBL of one SLE patient, FIG. 12): 100%
- Up-Regulation of TGF-β % (patients) ([6]; PBL of SLE patients, 48 hours): 100 (19/19) %
- secretion of TGF-β ([6]; PBL of one representative SLE patient, FIG. 13): significant up-regulation
- Maximum Up-regulation % ([6]; percent secretion above that in the presence of 16/6 Id alone (= 100%)): 305 ± 221%
- 16/6 Id specific antibody response [7]: no effect
- SLE related findings (immune complex deposits in the kidney, proteinuria, leukopenia) [7]: significantly reduced
- solubility ([8]; 30% (w/w) PEG 400): 5000 to 9000 µg/mL
- solubility ([8]; 30% DMA (dimethyl-acetamide) solution): 5000 to 9000 µg/mL
- solubility ([8]; Human Serum Albumin solution): 1000 µg/mL
- solubility ([8]; Hydroxypropyl-β-cyclodextrin solution): ~10000 µg/mL
- solubility ([8]; L-Arginine, resulting pH above 9): at the desired level
- solubility ([8]; Polysorbate 20 / Polysorbate 80 solution, up to 10%): ≤ 2000 µg/mL
- solubility ([8]; Sulfobutylether-β-cyclodextrin (Captisol) solution): ~2500 µg/mL
- effect on solubility ([8]; bulking agents Mannitol, Sorbitol, Dextran, alone and combined): did not improve the solubility
- stability versus pH ([8]; initial tests, limits of desired pH levels): less stable at the basic pH range
- effect on solubility ([8]; non aqueous solvents Ethanol, Glycerin, Propylene glycol, Chremophore and combinations): did not increase the solubility
